# Laboratory results as given in patent US9199975B2, “Biaryl imidazole derivatives for regulating CYP17” (Asana Biosciences, LLC, priority 2011, dated 2015).
# Tested on: testosterone production in H295R cells
# Assay: Cell-based functional assay for testosterone production in H295R cells
# Conditions: Homo sapiens, NCI-H295R, 72 hours, testosterone ELISA, read-out: Testosterone (human H295R adrenal cells)
# Experimental: Cell-based Functional Assay for Testosterone Production
# H295R cells (ATCC Number CRL-2128) were subcultured, seeded (30,000 cells per well in a poly-d lysine plate) and left overnight at 37° C. The next day (after approximately 24 hours), the media were removed and 200 μL fresh media were added. Then, 50 μL of serially diluted compounds was added from a 5× plate. The serial dilution in the 100× plate (in DMSO) and the stamping of a 5× plate (in media) from the 100× plate were carried out using a TECAN liquid handling device. The plate was incubated at 37° C. for 72 hours. After incubation, the media was removed, diluted 5 to 10 times with calibration diluent RD5-48, and the assay performed as per manufacturer's protocol (Parameter Testosterone Assay, Cat. No. KGE010, R&D systems; http://www.rndsystems.com/pdf/KGE010.pdf).
row,Compound,IC50 [nM]
1,"CC(c1cnc(-c2ccc(F)cc2F)s1)n1ccnc1 (stereo not drawn) [Example 28, 2-(2,4-Difluoro-phenyl)-5-(1-imidazol-1-yl-ethyl)-thiazole]",50 to 200
2,"CC(c1ccc(-c2ccc(F)cc2)cn1)n1ccnc1 (stereo not drawn) [Example 12, 2-(1-(1H-imidazol-1-yl)ethyl)-5-(4-fluorophenyl)pyridine]",201 to 10000
3,"CC(c1cnc(-c2ccc(C#N)cc2)s1)n1ccnc1 (stereo not drawn) [Example 22, 4-(5-(1-(1H-imidazol-1-yl)ethyl)thiazol-2-yl)benzonitrile]",201 to 10000
4,"CC(c1ccc(-c2ccc(=O)n(C)c2)s1)n1ccnc1 (stereo not drawn) [Example 20, 5-(5-(1-(1H-imidazol-1-yl)ethyl)thiophen-2-yl)-1-methylpyridin-2(1H)-one]",< 50
5,"CC(c1ccc(-c2ccc(=O)n(C(C)C)c2)s1)n1ccnc1 (stereo not drawn) [Example 21, 5-(5-(1-(1H-imidazol-1-yl)ethyl)thiophen-2-yl)-1-isopropylpyridin-2(1H)-one]",201 to 10000

# Target: T1, human CYP17 (Homo sapiens, UniProt P05093)
# T1 sequence (P05093 1-508): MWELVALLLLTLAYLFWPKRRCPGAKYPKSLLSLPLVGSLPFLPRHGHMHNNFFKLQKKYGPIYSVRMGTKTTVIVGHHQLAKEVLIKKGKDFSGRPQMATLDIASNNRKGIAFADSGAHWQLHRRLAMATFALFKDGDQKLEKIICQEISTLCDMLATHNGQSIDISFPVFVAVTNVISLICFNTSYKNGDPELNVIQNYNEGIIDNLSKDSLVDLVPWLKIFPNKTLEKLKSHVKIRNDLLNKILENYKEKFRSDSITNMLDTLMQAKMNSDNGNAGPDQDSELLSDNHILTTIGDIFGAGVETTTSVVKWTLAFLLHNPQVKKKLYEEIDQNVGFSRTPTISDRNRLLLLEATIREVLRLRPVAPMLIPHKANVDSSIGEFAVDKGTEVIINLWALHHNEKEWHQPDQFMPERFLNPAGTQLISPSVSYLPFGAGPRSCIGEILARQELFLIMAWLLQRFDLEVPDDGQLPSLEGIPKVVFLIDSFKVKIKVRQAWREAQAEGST
# Assay: Cell-based human CYP17 inhibition assay, LNCap-CYP17 cells
# Conditions: 16 hours at 37° C.
# Experimental: Cell-Based Human CYP17 Inhibition Assay
# A. Materials • 1. H295R Adrenocortical Carcinoma Cells and Growth Media: The media for the H295R Adrenocortical carcinoma cells [NCI-H295A, ATCC Number CRL-2128, American Type Culture Collection, Manassas, Va., US] (500 mL) was a DMEM:F12 Mix 1:1 with 5% […] BD Nu Serum; 1% (5 mL) ITS+Premix [BD Biosciences] and 1% Penstrep. • 2. LNCap-CYP17 Cells and Growth Media: Full length hCYP17a1 gene (NCBI Reference Sequence: NM_000102.3) was cloned in pCDNA3.1(+) vector between HindIII and XhoI site. The pCDNA3.1(+) vector contains the Neomycin resistance gene and was used for selection of stable cell line. The hCYP17a1 containing pCDNA3.1(+) was transfected into LNCap cells to create the LNCap-CYP17 cell line. The media for the LNCaP-CYP17 cells was RPMI 1640, 10% FBS, 1% PenStrep, Geneticin 400 μg/mL.
# The H295R cells or LNCaP-hCYP17 cells were subcultured and 30,000 cells per well were seeded in a poly-d lysine plate and incubated overnight at 37° C. The next day the media was removed and 200 µL of fresh media with ^3H3-17α-hydroxy-pregnenolone (1:1000) was added. 50 μL of serially diluted compounds from a 5× plate (5 times the final desired concentration) was added. The working concentration range for active, new compounds started from a high concentration of […] with 3-fold serial dilutions generating up to 10 concentrations. The serial dilution in the 100× plate (in DMSO) and the stamping of a 5× plate (in media) from the 100× plate were carried out using a TECAN liquid handling device.
# The plates were incubated overnight (16 hours) at 37° C. After 16 hours, the media was removed (approximately 220 μL) and an equal amount of chloroform was added, mixed and incubated for 30 minutes at 4 degrees. The plate was centrifuged at 4000 rpm for 15 minutes at 4° C., following which the top aqueous layer was carefully removed and added into a new deep well plate. An equal volume of activated 5% charcoal was added, mixed and incubated for 30 minutes at 4° C. The plate was then centrifuged at 4000 rpm for 15 minutes at 4° C. and the top layer carefully separated, avoiding any charcoal contamination, and placed in a white, clear bottom plate (plate cat #3610, Corning Life Sciences). An equal volume of Microscint™ 40 was added and mixed well. Following the incubation for 30 minutes, readings for the radiotracer were taken using a Microbeta® trilux.
row,Compound,IC50 [nM]
1,"CCC(c1ccc(-c2cccc(O)c2)cn1)n1ccnc1 (stereo not drawn) [Example 8, 3-(6-(1-(1H-imidazol-1-yl)propyl)pyridin-3-yl)phenol]",50 to 200
2,"CCC(c1ccc(-c2ccc(OC)cc2)o1)n1ccnc1 (stereo not drawn) [Example 27, 1-{1-[5-(4-Methoxy-phenyl)-furan-2-y]-propyl}-1H-imidazole]",50 to 200
3,"CCOC(=O)c1ccc(-c2ccc(C(CC)n3ccnc3)nc2)cc1 (stereo not drawn) [Example 5, Ethyl 4-(6-(1-(1H-imidazol-1-yl)propyl)pyridin-3-yl)benzoate]",201 to 10000
4,"CCC(c1ccc(-c2cccc(OC)c2)cn1)n1ccnc1 (stereo not drawn) [Example 7, 2-(1-(1H-imidazol-1-yl)propyl)-5-(3-methoxyphenyl)pyridine]",50 to 200

# Next, values leading:
row,IC50 [nM],Compound
1,201 to 10000,"CCC(c1cnc(-c2ccc(OC)cc2)s1)n1ccnc1 (stereo not drawn) [Example 35, 5-(1-Imidazol-1-yl-propyl)-2-(4-methoxy-phenyl)-thiazole]"
2,201 to 10000,"CCC(c1cnc(-c2ccc(O)cc2)s1)n1ccnc1 (stereo not drawn) [Example 60, 4-[5-(1-Imidazol-1-yl-propyl)-thiazol-2-yl]-phenol]"
3,< 50,"CCC(c1ccc(-c2ccc(O)cc2)o1)n1ccnc1 (stereo not drawn) [Example 30, 4-[5-(1-Imidazol-1-yl-propyl)-furan-2-yl]-phenol]"
4,201 to 10000,"CCC(c1ccc(-c2ccccc2OC)cn1)n1ccnc1 (stereo not drawn) [Example 56, 2-(1-Imidazol-1-yl-propyl)-5-(2-methoxy-phenyl)-pyridine]"
5,50 to 200,"CC(c1ccc(-c2ccc(O)cc2)s1)n1ccnc1 (stereo not drawn) [Example 49, 4-[5-(1-Imidazol-1-yl-ethyl)-thiophen-2-yl]-phenol]"
6,201 to 10000,"CCC(c1ccc(-c2ccccc2O)cn1)n1ccnc1 (stereo not drawn) [Example 37, 2-[6-(1-Imidazol-1-yl-propyl)-pyridin-3-yl]-phenol]"
